Structures can show the parent of a compound that is named as a salt.
Columns and labels:
[1] = system: female spinal cord-transected rats with bilaterally transected hypogastric nerve and pudendal nerve; experiment: Reflex urethral closure response induced by increased intravesical pressure, with hypogastric and pudendal nerves bilaterally transected; settings: for urethral closure response (cmH2O) after drug administration: 10 min after administration; for urethral closure response (cmH2O) after drug administration / urethral closure response (cmH2O) before drug administration: intravesical pressure raised to 50 cmH2O, mean ± SEM, n = 5; for action on the urethral closure response induced by the increased intravesical pressure (in words): i.v., female spinal cord-transected rats with hypogastric and pudendal nerves bilaterally transected
Description: Female SD rats (body weight 200-310 g) were anesthetized with urethane (Wako Pure Chemical Industries, Ltd.), and the spinal cord was transected at T8-9 level to eliminate the micturition reflex. During the operation, halothane (Takeda Pharmaceutical Company Limited) anesthesia was added when necessary. After abdominal section, bladder neck was ligated with a suture thread, and then the hypogastric nerve and pudendal nerve were bilaterally transected. A catheter (PE-90, Clay Adams) was placed in the bladder, and the other end of the bladder catheter was connected to a pressure transducer and a water reservoir (60 ml syringe) of saline via a three-way cock. A microchip transducer catheter (SPR-524, Millar Instruments Inc.) was inserted toward the bladder from the urethral opening, and adjusted using a scale on the catheter surface so that the transducer part is positioned in the urinary tract at 10.0-15.0 mm from the urethral opening.
The changes in the topical pressure within the urinary tract (hereinafter conveniently indicated as urethral internal pressure) as measured by the microchip transducer was transmitted to a computer via an amplifier (blood pressure amplification unit AP-641G; NIHON KOHDEN) and an analog-to-digital converter (MP-100; biopack; sampled at 500 Hz), and recorded on a hard disc. […] The reaction of the urinary tract induced by an increased intravesical pressure was measured 3 times, and the average of the last 2 measures was taken as the value before drug administration. The evaluation item was reflex urethral closure response, and the recorded values were subjected to smoothing process at 500 points to calculate an average urethral internal pressure per 1 sec, after which the value immediately before increase of the intravesical pressure was subtracted from the maximum value on increase of the intravesical pressure and taken as the urethral closure response. […] The drugs were all dissolved in N,N-dimethylformamide/polyethylene glycol 400 (1:1) and administered intravenously at a dose of 0.5 ml/kg.

[2] = molecular target: serotonin 5-HT2C receptor (isoform type VSV, stably expressing CHO cell) (Homo sapiens, UniProt P28335, I156V/I160V/N158S); experiment: cell-based; settings: for Emax: CHO, read-out: ratio to maximum response by 5-HT, read-out: ratio to maximum response by 5-HT (1 μM)
[3] = baseline of the 1 mg/kg i.v. group

Sequence of serotonin 5-HT2C receptor (isoform type VSV, stably expressing CHO cell) (P28335 33-458 I156V/N158S/I160V limits assumed): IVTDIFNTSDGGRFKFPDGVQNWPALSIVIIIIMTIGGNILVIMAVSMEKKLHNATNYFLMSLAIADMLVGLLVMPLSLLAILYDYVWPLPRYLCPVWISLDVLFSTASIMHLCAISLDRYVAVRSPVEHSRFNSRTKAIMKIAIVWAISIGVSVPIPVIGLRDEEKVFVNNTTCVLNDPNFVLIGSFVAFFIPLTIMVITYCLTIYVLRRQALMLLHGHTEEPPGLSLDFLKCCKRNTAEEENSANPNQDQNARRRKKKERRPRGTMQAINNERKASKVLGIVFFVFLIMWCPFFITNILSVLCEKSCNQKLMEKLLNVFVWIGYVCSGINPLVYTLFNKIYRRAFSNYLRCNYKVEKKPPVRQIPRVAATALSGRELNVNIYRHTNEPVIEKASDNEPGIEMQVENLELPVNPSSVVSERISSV

C[C@H]1CNCCc2ccc(Cl)cc21.Cl [APD-356]
urethral closure response (cmH2O) after drug administration ([1]; 1 mg/kg i.v.): 8.6 ± 2.7 cmH2O
urethral closure response (cmH2O) before drug administration [1, 3]: 5.3 ± 1.7 cmH2O
action on the urethral closure response induced by the increased intravesical pressure (in words) [1]: enhanced the urethral closure response

CC(C)(C)OC(=O)N1CCN(c2ccc3c(n2)OCCNC3)CC1 [Example 30, tert-butyl 4-(2,3,4,5-tetrahydropyrido[3,2-f][1,4]oxazepin-8-yl)piperazine-1-carboxylate]
Emax [2]: 99.4%

c1cc2c(nc1N1CCCCC1)OCCNC2 [Example 40, 8-piperidin-1-yl-2,3,4,5-tetrahydropyrido[3,2-f][1,4]oxazepine]
Emax [2]: 80.8%

c1cc2c(nc1N1CCOCC1)OCCNC2 [Example 41, 8-morpholin-4-yl-2,3,4,5-tetrahydropyrido[3,2-f][1,4]oxazepine]
urethral closure response (cmH2O) after drug administration ([1]; 1 mg/kg i.v.): 7.5 ± 1.6 cmH2O
urethral closure response (cmH2O) before drug administration [1, 3]: 4.6 ± 0.8 cmH2O
action on the urethral closure response induced by the increased intravesical pressure (in words) [1]: enhanced the urethral closure response
ratio to maximum response by 5-HT (1 μM) [2]: 83.0%

c1cc2c(nc1N1CCCC1)OCCNC2 [Example 43, 8-pyrrolidin-1-yl-2,3,4,5-tetrahydropyrido[3,2-f][1,4]oxazepine bis(trifluoroacetate)]
Emax [2]: 97%

CCN(CC)c1ccc2c(n1)OCCNC2 [Example 44, N,N-diethyl-2,3,4,5-tetrahydropyrido[3,2-f][1,4]oxazepin-8-amine bis(trifluoroacetate)]
Emax [2]: 95.1%

c1cc2c(nc1N1CCCCCC1)OCCNC2 [Example 46, 8-azepan-1-yl-2,3,4,5-tetrahydropyrido[3,2-f][1,4]oxazepine bis(trifluoroacetate)]
Emax [2]: 100%

CC1CCCCN1c1ccc2c(n1)OCCNC2 (centres unmarked) [Example 49, 8-(2-methylpiperidin-1-yl)-2,3,4,5-tetrahydropyrido[3,2-f][1,4]oxazepine bis(trifluoroacetate)]
Emax [2]: 89.5%

c1ccc(CCN2CCN(c3ccc4c(n3)OCCNC4)CC2)cc1 [Example 58, 8-[4-(2-phenylethyl)piperazin-1-yl]-2,3,4,5-tetrahydropyrido[3,2-f][1,4]oxazepine tris(trifluoroacetate)]
Emax [2]: 87.1%

c1ccc(CCCCN2CCN(c3ccc4c(n3)OCCNC4)CC2)cc1 [Example 67, 8-[4-(4-phenylbutyl)piperazin-1-yl]-2,3,4,5-tetrahydropyrido[3,2-f][1,4]oxazepine tris(trifluoroacetate)]
Emax [2]: 124%

Clc1ccc(-c2ccc3c(n2)OCCNC3)cc1 [Example 79, 8-(4-chlorophenyl)-2,3,4,5-tetrahydropyrido[3,2-f][1,4]oxazepine]
Emax [2]: 91.1%

Fc1ccc(-c2ccc3c(n2)OCCNC3)cc1 [Example 81, 8-(4-fluorophenyl)-2,3,4,5-tetrahydropyrido[3,2-f][1,4]oxazepine bis(trifluoroacetate)]
Emax [2]: 92.1%

CSc1ccc(-c2ccc3c(n2)OCCNC3)cc1 [Example 96, 8-[4-(methylthio)phenyl]-2,3,4,5-tetrahydropyrido[3,2-f][1,4]oxazepine bis(trifluoroacetate)]
Emax [2]: 90.3%

COC(=O)c1ccc(-c2ccc3c(n2)OCCNC3)cc1 [Example 102, methyl 4-(2,3,4,5-tetrahydropyrido[3,2-f][1,4]oxazepin-8-yl)benzoate bis(trifluoroacetate)]
Emax [2]: 91.3%

FC(F)(F)Oc1ccc(-c2ccc3c(n2)OCCNC3)cc1 [Example 104, 8-[4-(trifluoromethoxy)phenyl]-2,3,4,5-tetrahydropyrido[3,2-f][1,4]oxazepine bis(trifluoroacetate)]
Emax [2]: 94.6%

c1cc(-c2ccc3c(n2)OCCNC3)co1 [Example 112, 8-(3-furyl)-2,3,4,5-tetrahydropyrido[3,2-f][1,4]oxazepine bis(trifluoroacetate)]
Emax [2]: 93%

CC(C)(C)OC(=O)N1CCN(c2nc3c(cc2F)CNCCO3)CC1 [Example 122, tert-butyl 4-(7-fluoro-2,3,4,5-tetrahydropyrido[3,2-f][1,4]oxazepin-8-yl)piperazine-1-carboxylate]
Emax [2]: 110%

CC1CNCc2ccc(N3CCN(C(=O)OC(C)(C)C)CC3)nc2O1 (centres unmarked) [Example 126, tert-butyl 4-(2-methyl-2,3,4,5-tetrahydropyrido[3,2-f][1,4]oxazepin-8-yl)piperazine-1-carboxylate]
Emax [2]: 109%

CC1CNCc2ccc(N3CCOCC3)nc2O1 (centres unmarked) [Example 128, 2-methyl-8-morpholin-4-yl-2,3,4,5-tetrahydropyrido[3,2-f][1,4]oxazepine]
Emax [2]: 107%

CC1CNCc2ccc(N3CCCCC3)nc2O1 (centres unmarked) [Example 129, 2-methyl-8-piperidin-1-yl-2,3,4,5-tetrahydropyrido[3,2-f][1,4]oxazepine]
Emax [2]: 111%

C[C@@H]1CNCc2ccc(N3CCOCC3)nc2O1 [Example 130, (+)-2-methyl-8-morpholin-4-yl-2,3,4,5-tetrahydropyrido[3,2-f][1,4]oxazepine]
Emax [2]: 105%

C[C@H]1CNCc2ccc(N3CCOCC3)nc2O1 [Example 131, (−)-2-methyl-8-morpholin-4-yl-2,3,4,5-tetrahydropyrido[3,2-f][1,4]oxazepine]
Emax [2]: 94.2%

c1cc2c(nc1N1CCOCC1)OCCNC2 [Example 147, 8-morpholin-4-yl-2,3,4,5-tetrahydropyrido[3,2-f][1,4]oxazepine monohydrochloride]
Emax [2]: 93.9%

c1cc2c(nc1N1CCOCC1)OCCNC2 [Example 148, 8-morpholin-4-yl-2,3,4,5-tetrahydropyrido[3,2-f][1,4]oxazepine monohydrobromide]
ratio to maximum response by 5-HT (1 μM) ([2]; monohydrobromide): 93.5%

CC1CCC(C)N1c1ccc2c(n1)OCCNC2 (centres unmarked) [Example 155, 8-(2,5-dimethylpyrrolidin-1-yl)-2,3,4,5-tetrahydropyrido[3,2-f][1,4]oxazepine]
Emax [2]: 85.4%

Br.CC1CCC(C)N1c1ccc2c(n1)OCCNC2 (centres unmarked) [Example 156, 8-(2,5-dimethylpyrrolidin-1-yl)-2,3,4,5-tetrahydropyrido[3,2-f][1,4]oxazepine monohydrobromide]
ratio to maximum response by 5-HT (1 μM) [2]: 93.4%

CCC(C)N(C)c1ccc2c(n1)OCCNC2 (centres unmarked) [Example 171, N-(sec-butyl)-N-methyl-2,3,4,5-tetrahydropyrido[3,2-f][1,4]oxazepin-8-amine monohydrobromide]
Emax [2]: 99.6%

CCC(C)N(C)c1ccc2c(n1)OCCNC2 (centres unmarked) [Example 172, N-(sec-butyl)-N-methyl-2,3,4,5-tetrahydropyrido[3,2-f][1,4]oxazepin-8-amine monohydrochloride]
ratio to maximum response by 5-HT (1 μM) ([2]; monohydrochloride): 95.3%

CCC(C)N(C)c1ccc2c(n1)OCCNC2 (centres unmarked) [Example 173, N-(sec-butyl)-N-methyl-2,3,4,5-tetrahydropyrido[3,2-f][1,4]oxazepin-8-amine dihydrochloride]
ratio to maximum response by 5-HT (1 μM) ([2]; dihydrochloride): 95.1%

CC(C)N(C)c1ccc2c(n1)OCCNC2 [Example 177, N-isopropyl-N-methyl-2,3,4,5-tetrahydropyrido[3,2-f][1,4]oxazepin-8-amine]
Emax [2]: 91.5%

CC(C)N(C)c1ccc2c(n1)OCCNC2 [Example 178, N-isopropyl-N-methyl-2,3,4,5-tetrahydropyrido[3,2-f][1,4]oxazepin-8-amine monohydrobromide]
ratio to maximum response by 5-HT (1 μM) ([2]; monohydrobromide): 94.6%

CC(C)c1ccc2c(n1)OCCNC2 [Example 205, 8-isopropyl-2,3,4,5-tetrahydropyrido[3,2-f][1,4]oxazepine dihydrochloride]
Emax [2]: 93.5%

c1cc2c(nc1C1CC1)OCCNC2 [Example 210, 8-cyclopropyl-2,3,4,5-tetrahydropyrido[3,2-f][1,4]oxazepine dihydrochloride]
Emax [2]: 108%

c1cc2c(nc1C1CCC1)OCCNC2 [Example 211, 8-cyclobutyl-2,3,4,5-tetrahydropyrido[3,2-f][1,4]oxazepine dihydrochloride]
Emax [2]: 98%

c1cc2c(nc1C1CCCC1)OCCNC2 [Example 212, 8-cyclopentyl-2,3,4,5-tetrahydropyrido[3,2-f][1,4]oxazepine dihydrochloride]
Emax [2]: 91.9%

c1cc2c(nc1C1CCCC1)OCCNC2 [Example 213, 8-cyclopentyl-2,3,4,5-tetrahydropyrido[3,2-f][1,4]oxazepine]
ratio to maximum response by 5-HT (1 μM) [2]: 96.6%

c1cc2c3c(c1)[C@H]1CCC[C@H]1N3CCNC2 [WAY-163909]
urethral closure response (cmH2O) after drug administration ([1]; 3 mg/kg i.v.): 10.2 ± 1.6 cmH2O
urethral closure response (cmH2O) before drug administration ([1]; baseline of the 3 mg/kg i.v. group): 4.4 ± 0.8 cmH2O
action on the urethral closure response induced by the increased intravesical pressure (in words) [1]: enhanced the urethral closure response
